# Assay results as given in patent US20100137387A1, “BETA-KETO-AMIDE DERIVATIVES USEFUL AS ION CHANNEL MODULATORS” (NeuroSearch A/S, priority 2007, published 2010).
# Tests used:
# BK channels = molecular target: T1, BK channels (Homo sapiens, UniProt Q12791); test: BK channel activation, two-electrode voltage clamp in Xenopus laevis oocytes; format: cell-based; details: BK channels heterologously expressed in Xenopus laevis oocytes, 0.01-31.6 μM compound
# T1 construct: expressed in transfected cells; host or cells: Xenopus laevis oocytes
# Method: In this example the BK channel opening activity of Compound 4 (i.e. N-[5-Chloro-2-(1H-tetrazol-5-yl)-phenyl]-3-(4-chloro-3-trifluoromethyl-phenyl)-3-oxo-propionamide) is determined using BK channels heterologously expressed in Xenopus laevis oocytes.
# The electrical current through the BK channel is measured using conventional two-electrode voltage clamp. BK currents are activated by repeating ramp protocols. In brief, the membrane potential is continuously changed from −120 mV to +120 mV within 2 s. The threshold for BK activation is approximately +30 mV under control conditions. Compounds are applied for 100 s during which the ramp protocol is repeated 10 times with 10 s intervals. In between the ramp protocols the membrane potential is clamped at −80 mV. […]
# In order to evaluate the ability of the compounds to shift the BK activation curve towards lower membrane potentials, the BK current was transformed into conductance by using Ohm's law g=I/(Ememb−Erev), where g is the conductance, I is the current, Ememb is the membrane potential and Erev is the reversal potential. […] The control conductance level at a membrane potential of +100 mV was calculated, and the compound effect was evaluated as the potential difference, ΔV, to the membrane potential at which the same conductance level was obtained in the presence of compound. […]
# chloride channel = test: In vitro human erythrocyte chloride conductance; format: cell-based; details: suspensions of human erythrocytes; from Cl- netfluxes and membrane potentials; read-out: KD-value (chloride channel blocking activity, membrane Cl-conductance)
# From the text: In this example the chloride channel blocking activity of an acetamide derivative representative of the invention, i.e. Compound 3 (3-(3,5-Bis-trifluoromethyl-phenyl)-3-oxo-N-[3-(1H-tetrazol-5-yl)-4′-trifluoromethoxy-biphenyl-4-yl]-propionamide), has been determined.
# All dose-response experiments were therefore performed by concomitant measurements of conductive netfluxes of Cl^− (Jcl) and membrane potentials (Vm) in suspensions of erythrocytes as described by Bennekou et al. (Bennekou P and Christophersen P: Flux ratio of Valinomycin-Mediated K^+ Fluxes across the Human Red Cell Membrane in the presence of the Protronophore CCCP; J. Membrane Biol. 1986 93 221-227).
# The membrane Cl-conductances (GCl) were calculated according to Hodgkin et al. (Hodgkin A L and Huxley A F: The components of membrane conductance in the giant axon of Loligo; J. Physiol. Lond. 1952 116 449-472) using the following equation: […]
# where F is the Faraday constant and ECl is the Nernst potential for the Cl-ion.
# T1 sequence (Q12791 whole entry): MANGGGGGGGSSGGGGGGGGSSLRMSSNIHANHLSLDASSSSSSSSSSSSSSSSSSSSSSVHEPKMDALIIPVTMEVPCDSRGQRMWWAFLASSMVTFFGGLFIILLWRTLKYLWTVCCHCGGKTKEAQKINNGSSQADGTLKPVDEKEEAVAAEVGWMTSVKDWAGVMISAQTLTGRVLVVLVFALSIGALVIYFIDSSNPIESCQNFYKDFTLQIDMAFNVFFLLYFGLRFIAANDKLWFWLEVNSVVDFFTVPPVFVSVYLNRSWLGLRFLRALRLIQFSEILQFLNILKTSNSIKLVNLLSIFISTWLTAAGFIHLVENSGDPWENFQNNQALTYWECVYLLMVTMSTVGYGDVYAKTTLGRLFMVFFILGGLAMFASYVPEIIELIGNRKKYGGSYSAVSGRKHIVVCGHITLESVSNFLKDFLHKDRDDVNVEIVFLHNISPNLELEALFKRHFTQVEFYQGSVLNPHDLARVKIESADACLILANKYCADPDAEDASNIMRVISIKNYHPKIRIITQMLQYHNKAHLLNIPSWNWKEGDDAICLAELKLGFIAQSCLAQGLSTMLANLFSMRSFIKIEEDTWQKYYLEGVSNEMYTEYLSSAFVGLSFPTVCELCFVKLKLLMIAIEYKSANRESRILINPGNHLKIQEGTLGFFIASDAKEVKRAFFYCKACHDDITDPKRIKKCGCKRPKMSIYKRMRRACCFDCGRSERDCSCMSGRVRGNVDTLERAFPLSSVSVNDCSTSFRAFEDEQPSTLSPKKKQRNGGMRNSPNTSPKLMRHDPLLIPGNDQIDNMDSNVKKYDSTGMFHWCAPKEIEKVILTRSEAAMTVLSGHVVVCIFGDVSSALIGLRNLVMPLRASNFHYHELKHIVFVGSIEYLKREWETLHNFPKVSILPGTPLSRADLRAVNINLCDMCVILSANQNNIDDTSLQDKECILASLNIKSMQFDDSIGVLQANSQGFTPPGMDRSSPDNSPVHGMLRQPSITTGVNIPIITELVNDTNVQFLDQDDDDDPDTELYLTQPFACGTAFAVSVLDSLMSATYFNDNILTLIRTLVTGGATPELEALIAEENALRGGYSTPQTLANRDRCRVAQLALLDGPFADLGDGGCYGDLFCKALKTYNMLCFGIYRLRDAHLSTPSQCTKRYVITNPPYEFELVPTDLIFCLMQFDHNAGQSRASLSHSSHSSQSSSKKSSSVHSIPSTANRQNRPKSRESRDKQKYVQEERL
ΔVmax (maximal left shift of the BK activation curve) (BK channels; fitted to sigmoidal logistic equation),"EC50 (BK channels; ΔV vs. control conductance at +100 mV, read-out: EC50 for the left-shift of the BKCa-activation curve)",Kd (chloride channel),SMILES
−123 mV,1800 nM,,"O=C(CC(=O)c1ccc(Cl)c(C(F)(F)F)c1)Nc1cc(Cl)ccc1-c1nnn[nH]1 [Compound 4, N-[5-Chloro-2-(1H-tetrazol-5-yl)-phenyl]-3-(4-chloro-3-trifluoromethyl-phenyl)-3-oxo-propionamide]"
,,210 nM,"O=C(CC(=O)c1cc(C(F)(F)F)cc(C(F)(F)F)c1)Nc1ccc(-c2ccc(OC(F)(F)F)cc2)cc1-c1nnn[nH]1 [Compound 3, 3-(3,5-Bis-trifluoromethyl-phenyl)-3-oxo-N-[3-(1H-tetrazol-5-yl)-4′-trifluoromethoxy-biphenyl-4-yl]-propionamide]"
